Reference: US10752900B2, “Oligonucleotides for modulating gene expression and uses thereof” (BIOGENERA S.P.A., priority 2012, dated 2020)

Experiments:
[1] = tested on: MYCN gene; assay: QT-PCR, MYCN mRNA in SKNBE2c cells; assay type: cell-based, human; conditions: Table 6
Protocol: For the purpose of assessing the ability of the oligonucleotides of the present invention to modulate the expression of the target genes, their ability to reduce the quantity of messenger RNA was analyzed using the Real-Time PCR technique. For this purpose, use was made of 24-well plates, which were seeded with 5.0×10^4 cells with 0.3 ml of OPTI-MEM (GIBCO BRL) medium, 4% FBS and 2 mM L-glutammine (experiments in triplicate) per well. The cells were incubated for 24 hours at 37° C., in an atmosphere containing 5% CO2 to permit adherence to the base of the wells. For each well, the oligonucleotides were analyzed at the following final concentrations: • the antisense oligonucleotides siRNA and siRNA gapmer (i.e. the oligonucleotides containing one or more monomers of chemically modified nucleic acids at the 3' or 5' end, while in the central portion they have monomers of nucleic acids that have not been modified or have been modified at the level of the phosphodiester bond as a phosphorothioate bond) were used at 200 nM; • the antisense oligonucleotides containing phosphorothioate DNA monomers, the RNA antigene oligonucleotides (agRNA) and the oligonucleotides containing DNA monomers and LNA monomers were used at 10 μM; • the morpholino oligonucleotides were used at a concentration of 1 μM, and • the PNA oligonucleotides were administered at a concentration of 1 μM. The cells were treated with the oligonucleotides, adding FBS up to 4% 6 hours after administration of the same. After 24 hours the total RNA was extracted from each well and purified using the RNeasy Mini Kit (QIAGEN). Assays were performed on 8 cell lines obtained from 5 different human tumours which are correlated with MYCN expression, i.e.: • as a neuroblastoma model use was made of the cell lines Kelly, IMR-32 (where the MYCN gene is amplified and superexpressed) and SKNBE2c and LAN1 (where the MYCN gene is amplified and superexpressed and the p53 gene is mutated); • as a rabdomiosarcoma model use was made of the cell line RH30, where the MYCN gene is amplified and superexpressed; • as a Wilms' tumour model use was made of the cell line WiT49, where the MYCN gene is amplified and superexpressed; • as a retinoblastoma model use was made of the cell line Y79, where the MYCN gene is amplified and superexpressed; and • as a model of small cell lung cancer use was made of the cell line H69 where the MYCN gene is amplified and superexpressed. As a control, use was made of the same cell lines as listed above treated with sterile water instead of oligonucleotides. Each RNA sample was quantified (in duplicate) using a NanoDrop ND-1000 spectrophotometer (NanoDrop Technologies). The first strand of cDNA was produced using the cDNA Synthesis Kit for RT-PCR (Roche). For the cDNA synthesis reaction a total of 1 μg of RNA was used. For the real-time PCR, 10 ng of cDNA in a final volume of 20 μl was used with SYBR Green Master Mix 2× (Applied Biosystems) (3 identical experiments were conducted in triplicate). Two housekeeping genes were used as positive controls: GAPDH and beta-actin (ACTB). The conditions of the QT-PCR reaction were: 10 min at 95° C., 20 sec at 95° C., and 30 sec at 60° C., for 50 cycles. The PNAs having SEQ ID NO: 1-12 were also tested on different cell lines which overexpress MYCN (Kelly, SKNBE2c, RH30, […] 1 and H69). The results are shown in Table 6 and confirm the selectivity and specificity of the inhibition effect of the PNAs on the product of protein translation of the MYCN gene.

[2] = tested on: H69; assay: Cellular proliferation assay (ATP-Lite), H69 cells; assay type: cell-based, human; conditions: Table 6
Protocol: For the purpose of assessing the gene modulation ability of the oligonucleotides of the present invention, the effect of their administration on cell viability was determined.
For this purpose 5×10^3 cells per well were seeded into 96-well cell culture plates (experiments conducted in triplicate) with 100 μl of OPTI-MEM (GIBCO BRL) medium containing 4% FBS and 2 mM of L-glutammine.
The PNA oligonucleotides were administered at different concentrations (1 μM-2.5 μM-5 μM-10 μM) in order to observe a dose-effect relationship.
The viability of the treated cells was determined at 48, 72, 96 and 168 hours after treatment.
Cell viability was assessed by means of an ATP-Lite assay (Luminescence ATP Detection Assay System, PerkinElmer) and is reported as the ratio between the average signal of the treated wells compared to the average value of the wells of untreated control cells. The cells were processed following the instructions provided with the kit.
The assays were performed on the same cell lines used to determine the levels of the MYCN gene messenger and listed in the paragraph: Treatments with Oligonucleotides—QT-PCR.
The PNAs having SEQ ID NO: 1-12 were also tested on different cell lines which overexpress MYCN (Kelly, SKNBE2c, RH30, WiT49, WERI-Rb1 1 and H69). The results are shown in Table 6 and confirm the selectivity and specificity of the inhibition effect of the PNAs on the product of protein translation of the MYCN gene.
The ability of the tested oligonucleotides to inhibit the messenger of the gene of interest was measured and the proliferative capacity of the cells following administration of the oligonucleotides was also assessed.

| Substance | SKNBE2c % mRNA [1] | H69 % cell prol. [2] |
| --- | --- | --- |
| SEQ ID NO: 1: PNA ATGCCGGGCATGATCT against MYCN; subject of patent EP 1618195, control sequence used for comparison (all peptide nucleic acid (PNA)) [reference compound] | 41% | 77% |
| SEQ ID NO: 2: PNA antigene oligonucleotide GGGTGGATGCGGGGGG directed against MYCN (PNA backbone, chemistry not fully specified) | 75% | 61% |
| SEQ ID NO: 3: PNA antigene oligonucleotide GATGCGGGGGGCTCCT directed against MYCN (PNA backbone, chemistry not fully specified) | 68% | 63% |
| SEQ ID NO: 4: PNA antigene oligonucleotide GTCGGCGGGAGGTAAG directed against MYCN (PNA backbone, chemistry not fully specified) | 60% | 66% |
| SEQ ID NO: 5: PNA antigene oligonucleotide GCTGGGTGGATGCGGG directed against MYCN (PNA backbone, chemistry not fully specified) | 59% | 68% |
| SEQ ID NO: 6: PNA antigene oligonucleotide TGGACGCGCTGGGTGG directed against MYCN (PNA backbone, chemistry not fully specified) | 62% | 69% |
| SEQ ID NO: 7: PNA antigene oligonucleotide CGCGCTGGGTGGATGC directed against MYCN (all peptide nucleic acid (PNA)) | 60% | 67% |
| SEQ ID NO: 8: PNA antigene oligonucleotide GTCTGGACGCGCTGGG directed against MYCN (all peptide nucleic acid (PNA)) | 62% | 66% |
| SEQ ID NO: 9: PNA antigene oligonucleotide CCCTGCAGTCGGCGGG directed against MYCN (all peptide nucleic acid (PNA)) | 58% | 70% |
| SEQ ID NO: 10: PNA antigene oligonucleotide CGGCCGCGGGCCGCCA directed against MYCN (PNA backbone, chemistry not fully specified) | 41% | 79% |
| SEQ ID NO: 11: PNA antigene oligonucleotide GGGAACTGTGTTGGAG directed against MYCN (PNA backbone, chemistry not fully specified) | 40% | 78% |
| SEQ ID NO: 12: PNA antigene oligonucleotide TGTCTGGACGCGCTGG directed against MYCN (all peptide nucleic acid (PNA)) | 40% | 78% |
